System: Nanog in CRL-2352 (ATCC) cells
Assay: Effect of valproic acid on FGF2 de-differentiation (Nanog immunocytochemistry on glass coverslips)
Type: cell-based, human
Conditions: 1.0 μM valproic acid with 4 ng/ml FGF2, glass coverslips, 5% O2, 6 days
Description: The effect of valproic acid on FGF2 de-differentiation was also studied. CRL-2352 (ATCC) cells (2000 cells per well in 24-well plates containing sterile 12 mm glass coverslips) were cultured in medium consisting of DMEM:Ham's F12 (60:40, MediaTech) with 10% Fetalclone III (Hyclone, Logan, Utah) and 4 ng/ml FGF2, with and without 1.0 μM valproic acid, in parallel cultures. Cultures were carried out in a 37° C. incubator in a humidified environment of 5% CO2, 5% O2, and 90% N2 for 6 days with medium changed at day 3. Cells were washed with DPBS and fixed with −20° C. methanol for 10 min, washed with PBS and processed for immunocytochemistry.

How did the “nuclear staining for Nanog” value turn out when `CCCC(CCC)C(=O)O` [valproic acid] was run?
The value was “increased nuclear staining for Nanog”.
